# Tests used:
# [1] = system: diabetic rats (T1D and T2D); test: Flavonoids and extract administered to diabetic rats; type: in vivo; settings: for results in diabetic rats compared with the extract: extracted and fractionated from Cyclopia
# Description: The flavonoids specifically used were mangiferin and hesperidin.
# Experiments with diabetic test animals (rats) were carried out.
# [2] = Bioassay of purified fractions for anti-diabetic activity
# Source text: The partially purified active extract may be dissolved in methanol, and may be further fractionated by column chromatography, employing silica gel as an adsorption medium and a chloroform/30% methanol mixture as an eluent. A plurality of different fractions may be obtained, and each may be evaluated, by suitable bioassaying procedures, to determine the anti-diabetic activity thereof.
# A fraction having anti-diabetic activity may preferably be further fractionated such as by column chromatography using silica gel as an adsorption medium and a 9:1 chloroform:methanol solvent, and the resultant sub-fractions bioassayed for their anti-diabetic activity. A sub-fraction displaying anti-diabetic activity may, if desired, be further fractionated and purified, conveniently using a column chromatographic procedure with silica gel as the adsorption medium and a 9:1 ethylacetate:hexane solvent. The resultant purified fractions may again be evaluated by suitable bioassay procedures for their anti-diabetic activity.
SMILES,lowering of blood sugar and diabetic symptoms ([1]; both T1D and T2D rats),results in diabetic rats compared with the extract [1],anti-diabetic activity of purified fraction [2]
O=c1c2cc(O)c(O)cc2oc2cc(O)c([C@@H]3O[C@H](CO)[C@@H](O)[C@H](O)[C@H]3O)c(O)c12 [mangiferin],effective in lowering the blood sugar and generally alleviating diabetic symptoms,results similar to those produced by the extract,superior anti-diabetic activity
"COc1ccc([C@@H]2CC(=O)c3c(O)cc(O[C@@H]4O[C@H](CO[C@@H]5O[C@@H](C)[C@H](O)[C@@H](O)[C@H]5O)[C@@H](O)[C@H](O)[C@H]4O)cc3O2)cc1O [hesperidin, 7-[[6-O-(6-deoxy-α-L-mannopyranosyl)-β-D-glucopyranosyl]oxy]-2,3-dihydro-5-hydroxy-2-(3-hydroxy-4-methoxyphenyl)-4H-1-benzopyran-4-on]",,results similar to those produced by the extract,
